{
  "source": "patent US11185548B2",
  "about": "“Inhibitors of cytochrome P450 family 7 subfamily B member 1 (CYP7B1) for use in treating diseases” (HELMHOLTZ ZENTRUM MÜNCHEN—DEUTSCHES FORSCHUNGSZENTRUM FÜR …, priority 2016, dated 2021)",
  "key": {"[1]": {"tested_on": "IgM cross-linked splenic B cells", "experiment": "ex vivo B cell migration assay towards medium from CSE treated airways", "type": "cell-based, mouse", "settings": "10% CSE", "description": "(§1) Middle and distal airways from C57BL/6J and Ch25h^−/− mice were isolated and incubated ex vivo as described by Yildirim et al. (Eur Respir J 32, 694-704 (2008)). Briefly, after sacrifice by a ketamine-xylazine over dose, the trachea was cannulated, the lungs removed from the thorax and infused with 1% low-melting agarose dissolved in 1:1 Ham's F12 nutrient medium (Sigma-Aldrich) and distilled water (Gibco, Life Technologies). Airways were dissected under a microscope (Zeiss) from the left lung after the agarose had solidified on ice for 30 min. The isolated airways were washed and cultured in airway epithelial cell medium (PromoCell) at 37° C., 5% CO2.\nB cells were purified from the spleens of C57BL/6J mice by negative selection (B cell Isolation Kit, mouse, Miltenyi Biotec). For the migration assay, primary mouse airways were isolated 1 day prior, treated with 10% cigarette smoke extract (CSE) in airway epithelial cell culture medium or culture medium alone for 24 h and at the same time to inhibit Cyp7b1, clotrimazole was also diluted with culture medium to a final concentration of 1 μM for 1 h prior to the migration assay. […] The supernatants were transferred as conditioned medium to the lower well of 24-well transwell plates (Permeable Polycarbonate Membrane Inserts, Corning, Fisher Scientific), for inducing B cell migration, while the airway samples were snap frozen in liquid nitrogen for RNA isolation. Freshly isolated B cells at 2.5×10^6/ml in 100 μl were activated by unconjugated AffiniPure F(ab′)2 Fragment Goat anti-mouse IgM, μchain specific antibody (1.3 μg/ml, 115-006-020, Jackson Immunoresearch Laboratories) for 1 hr at 37° C. in 5.0 μm pore sized transwell inserts (Permeable Polycarbonate Membrane Inserts, Corning, Fisher Scientific). Transwell inserts were then placed into the wells of conditioned medium and incubated for 3 hr at 37° C. Migrated B cells were collected and counted by Neubauer Chamber and reported as percentage of input."}, "[2]": {"tested_on": "C57BL/6 mice exposed to cigarette smoke", "experiment": "CS induced COPD model, clotrimazole therapeutic dosing", "type": "in vivo, mouse", "description": "Experimental design: In the early treatment group C57BL/6 mice were exposed to filtered air (FA) or cigarette smoke (CS) for 4 months and treated with clotrimazole (i.p. 80 mg/Kg 3 times per week) from months 2 to 4 or oil controls. In the late treatment group C57BL/6 mice were exposed to FA or CS for 6 months and treated with clotrimazole from months 4 to 6 or oil controls.\n8-12 week old mice were used in all experiments. For the CS induced COPD model, mice were exposed to 100% mainstream CS (John et al., Clinical science 126, 207-221 (2014)) at a particle concentration of 500 mg/m^3, generated from 3R4F research cigarettes (Filter removed, Tobacco Research Institute, University of Kentucky), for 50 min twice/day, 5 days/week for 4 or 6 months. Mice exposed to filtered air were used as controls. For the elastase induced iBALT-independent COPD model, mice were instilled oropharyngeally with a single application of 80 U/Kg body weight Porcine Pancreatic Elastase (PPE) (Sigma Aldrich) in 80 μl PBS. Mice treated with 80 μl PBS were included as controls. For Cyp7b1 inhibition, clotrimazole (Sigma Aldrich) 10 mM in DMSO, was further diluted in Corn oil (Mazola, Unilever) and applied i.p. at a dose of 80 mg/Kg body weight 3 times/week for two months. Mice were treated after two or four months of CS exposure and smoked for a further two months in parallel with the clotrimazole treatment.\nAfter lung function analysis lungs were lavaged with 3×500 ul aliquots of sterile PBS (Gibco, Life Technologies) supplemented with Complete Protease Inhibitor Cocktail tablets (Roche Diagnostics). Cells were pelleted at 400 g for 20 min and resuspended in 500 μl RPMI-1640 medium (Gibco, Life Technologies) for the total cell count using a Neubauer Chamber. Cytospins of the cell suspension were then prepared and stained using May-Grünwald-Giemsa for differential cell counting (200 cells/sample) using morphological criteria. BAL fluid was retained for mass spectrometry analysis.\nH&E stained tissue sections were analyzed by design-based stereology using an Olympus BX51 light microscope equipped with the new Computer Assisted Stereological Toolbox (newCAST, Visiopharm) as described (John-Schuster et al., American journal of physiology. Lung cellular and molecular physiology 307, L692-706 (2014)), by readers blinded to the study groups. Briefly, for mean chord length (MCL) measurements, 20 frames were selected randomly across multiple sections by the software, using the ×20 objective, and superimposed by a line grid and points. The intercepts of lines on alveolar wall (Lsepta) and points localized on air space (Pair) were counted and calculated as MCL=ΣPair××L(p)/ΣLsepta×0.5, where L(p) is the line length per point. The volume of inflammation (V) was quantified in 50 frames, using the ×40 objective, by counting points hitting inflammatory cell zones (Pinflam). For calculation, the Pinflam were referenced to intercepts of lines with both airways and vessels (Iairway/vessel): V=ΣPinflam×L(p)/ΣIairway/vessel. Further, airway, vessel or septum associated inflammation quantification was classified by the location of the inflammation, and was calculated referring to intercept of lines with airway, vessel, or both, respectively."}, "Ch25h expression": {"tested_on": "Ch25h expression", "experiment": "gene expression after 10% CSE + LPS stimulation: Ch25h", "type": "cell-based, mouse", "settings": "10% CSE + 10 μg/mL LPS", "description": "(§2) The cells were incubated for 24h at 37° C., 5% CO2, in a 24 well-plate with or without 10% cigarette smoke extract (CSE, 10%)+lipopolysaccharide (LPS, 10 μg/mL), supplemented or not with the 18 CYP7B1 inhibitors (0.3 and 1 μM). B cells were purified from the spleens of C57BL/6J mice by negative selection (B cell Isolation Kit, mouse, Miltenyi Biotec). Freshly isolated B cells at 2.0×10^6/mL in 100 μL were activated by unconjugated AffiniPure F(ab′)2 Fragment Goat anti-mouse IgM, μchain specific antibody (10 μg/mL, 115-006-020, Jackson Immunoresearch Laboratories) for 1 hr at 37° C. in 5.0 μm pore sized transwell inserts (Permeable Polycarbonate Membrane Inserts, Corning, Fisher Scientific). Migrated B cells were collected, and counted by fluorescence-activated cell sorting (FACS) (Trucount tubes, BD Biosciences).\n(§3) 10 ng RNA was reverse transcribed using Random Hexamers and MuLV Reverse Transcriptase (Applied Biosystems). Gene expression was analyzed using SensiFAST SYBR Hi-ROX Kit (Bioline) on a StepOnePlus 96 well Real-Time PCR System (Applied Biosystems). […] Expression of each gene was calculated relative to the housekeeping gene 18S as 2^−ΔCt."}, "Ch25h mRNA": {"tested_on": "Ch25h mRNA", "experiment": "quantitative real time RT-PCR of CSE treated airways: Ch25h", "type": "cell-based, mouse", "settings": "CSE treated airways dissected from C57BL/6 mice, 1 μM clotrimazole", "description": "(§4) 1 ug RNA was reverse transcribed using Random Hexamers and MuLV Reverse Transcriptase (Applied Biosystems). Gene expression was analyzed using SensiFAST SYBR Hi-ROX Kit (Bioline) on a StepOnePlus 96 well Real-Time PCR System (Applied Biosystems). Primer sequences can be found in Table 1. Expression of each gene was calculated relative to the housekeeping gene HPRT1 or Hprt1 as 2^−[…]Ct.\nas §1\n(§5) B cells were purified from the spleens of C57BL/6J mice by negative selection (B cell Isolation Kit, mouse, Miltenyi Biotec). […] Migrated B cells were collected and counted by Neubauer Chamber and reported as percentage of input."}, "Tnf expression": {"tested_on": "Tnf expression", "experiment": "gene expression after 10% CSE + LPS stimulation: Tnf", "type": "cell-based, mouse", "settings": "10% CSE + 10 μg/mL LPS", "description": "as §2, §3"}, "Cyp7b1 expression": {"tested_on": "Cyp7b1 expression", "experiment": "gene expression after 10% CSE + LPS stimulation: Cyp7b1", "type": "cell-based, mouse", "settings": "10% CSE + 10 μg/mL LPS", "description": "as §2, §3"}, "Cyp7b1 mRNA": {"tested_on": "Cyp7b1 mRNA", "experiment": "quantitative real time RT-PCR of CSE treated airways: Cyp7b1", "type": "cell-based, mouse", "settings": "CSE treated airways dissected from C57BL/6 mice, 1 μM clotrimazole", "description": "as §4, §1, §5"}, "[3]": {"settings": "early and late treatment groups, i.p. 80 mg/Kg 3 times per week"}, "[4]": {"settings": "early treatment: CS 4 months, i.p. 80 mg/Kg 3 times per week from months 2 to 4"}, "[5]": {"settings": "late treatment: CS 6 months, i.p. 80 mg/Kg 3 times per week from months 4 to 6"}},
  "note": "Entries after “also recorded” stand apart in the source; their conditions may differ.",
  "data": [
    {"molecule": "Clc1ccc(COC(Cn2ccnc2)c2ccc(Cl)cc2Cl)c(Cl)c1", "note": "(racemic) [Miconazole, (RS)-1-(2-(2,4-Dichlorobenzyloxy)-2-(2,4-dichlorophenyl)ethyl)-1H-imidazole]", "values": [
      {"measurement": "migration of activated B cells towards culture supernatant from CSE-treated airways", "setting": "[1]; compound 1 μM", "result": "impaired B cell migration"}
    ]},
    {"molecule": "CC(C)(C(=O)c1cccnc1)c1cccnc1", "note": "[Metyrapone, 2-methyl-1,2-di(pyridin-3-yl)propan-1-one]", "values": [
      {"measurement": "migration of activated B cells towards culture supernatant from CSE-treated airways", "setting": "[1]; compound 1 μM", "result": "impaired B cell migration"}
    ]},
    {"molecule": "CC(C)c1nc(CN(C)C(=O)N[C@H](C(=O)N[C@@H](Cc2ccccc2)C[C@H](O)[C@H](Cc2ccccc2)NC(=O)OCc2cncs2)C(C)C)cs1", "note": "[Ritonavir, 1,3-thiazol-5-ylmethyl N-[(2S,3S,5S)-3-hydroxy-5-[(2S)-3-methyl-2-{[methyl({[2-(propan-2-yl)-1,3-thiazol-4-yl]methyl})carbamoyl]amino}butanamido]-1,6-diphenylhexan-2-yl]carbamate]", "values": [
      {"measurement": "migration of activated B cells towards culture supernatant from CSE-treated airways", "setting": "[1]; compound 0.1 μM", "result": "impaired B cell migration"},
      {"measurement": "migration of activated B cells towards culture supernatant from CSE-treated airways", "setting": "[1]; compound 1 μM", "result": "impaired B cell migration"}
    ]},
    {"molecule": "Clc1ccccc1C(c1ccccc1)(c1ccccc1)n1ccnc1", "note": "[clotrimazole, 1-[(2-Chlorophenyl)(diphenyl)methyl]-1H-imidazole]", "values": [
      {"measurement": "cigarette smoke-induced COPD", "setting": "[2]; [3]", "result": "protects against and reverses cigarette smoke-induced COPD"},
      {"measurement": "lung inflammatory responses following exposure to chronic cigarette smoke", "setting": "[2]; [3]", "result": "does not attenuate lung inflammatory responses"},
      {"measurement": "emphysema development (mean chord length)", "setting": "[2]; [4]", "result": "lack of emphysema development"},
      {"measurement": "iBALT formation", "setting": "[2]; [4]", "result": "significantly reduced iBALT formation"},
      {"measurement": "lung volume", "setting": "[2]; [4]", "result": "no deterioration in lung volume"},
      {"measurement": "lymphocyte cell numbers in BAL fluid", "setting": "[2]; [4]", "result": "reduced macrophage and lymphocyte cell numbers"},
      {"measurement": "macrophage cell numbers in BAL fluid", "setting": "[2]; [4]", "result": "reduced macrophage and lymphocyte cell numbers"},
      {"measurement": "emphysema (mean chord length)", "setting": "[2]; [5]", "result": "attenuated"},
      {"measurement": "iBALT", "setting": "[2]; [5]", "result": "attenuated"},
      {"measurement": "lung volume", "setting": "[2]; [5]", "result": "reduced lung volume"},
      {"measurement": "macrophage cell numbers in BAL fluid", "setting": "[2]; [5]", "result": "reduced macrophage cell numbers"},
      {"measurement": "induction of Ch25h expression", "setting": "Ch25h expression", "result": "inhibited"},
      {"measurement": "induction of Ch25h expression", "setting": "Ch25h expression; listed as Clotrimazole", "result": "inhibits the gene expression"},
      {"measurement": "Ch25h mRNA abundance", "setting": "Ch25h mRNA", "result": "did not affect Ch25h levels"},
      {"measurement": "migration of activated B cells towards culture supernatant from CSE-treated airways", "setting": "[1]; compound 1 μM", "result": "significantly impaired the ability of activated B cells to migrate; also recorded: impairs B cell migration"},
      {"measurement": "induction of Tnf (TNFα) expression", "setting": "Tnf expression", "result": "inhibited"},
      {"measurement": "induction of Tnf (TNFα) expression", "setting": "Tnf expression; listed as Clotrimazole", "result": "inhibits the gene expression"},
      {"measurement": "induction of Cyp7b1 expression", "setting": "Cyp7b1 expression", "result": "inhibited"},
      {"measurement": "induction of Cyp7b1 expression", "setting": "Cyp7b1 expression; listed as Clotrimazole", "result": "inhibits the gene expression"},
      {"measurement": "Cyp7b1 mRNA abundance", "setting": "Cyp7b1 mRNA", "result": "sufficient to reduce Cyp7b1 mRNA expression"}
    ]}
  ]
}
